Drawing on patent US6423740B1, “Chalcones having antiproliferative activity” (Indena S.p.A., priority 1997, dated 2002), this text covers melting point and IC50 for 26 compounds.

Data set [1] has as its system type II estrogen receptors. Kind of data set: Binding to type II estrogen receptors, displacement of 3H-estradiol in tumor cells. The note with it: read-out: IC50, concentration causing 50% displacement of the estradiol labelled by its own receptor. How it is done:
The binding to type II estrogen receptors was evaluated in ovarian tumor cells and tumor cells of other target organs. The cells were grown in a single layer according to the known techniques reported in the literature. To make the test reproducibility, the cells were trypsin treated, every week and placed on plates at a density of 8×10^4 cells/cm^2 and incubated at 37° C. in air containing 5% CO2.
(§1) The various compounds under test, dissolved in ethyl alcohol, were added at serial dilutions and the treated cells and control cells were incubated with ^3H-estradiol or in the presence of diethylstilbestrol according to the methods described by literature. The antiproliferation activity were verified in the same way by adding the compounds, dissolved in DMSO, to the medium and performing a cell count after 72 hours.

A further data set concerns MDA-MB231. Kind of data set: Antiproliferation activity in vitro, cell count after 72 hours, sensitive breast tumoral line. The class given is cell-based. The note with it: MDA-MB-231, MDA-MB231 sensitive human breast tumoral line, read-out: IC50 (MDA-MB231), concentration causing 50% inhibition of the cell proliferation. How it is done: as §1
A further data set relates to MCF7 ADRr. Kind of data set: Antiproliferation activity in vitro, cell count after 72 hours, adriamycin-resistant breast tumoral line. It counts as cell-based. The note with it: MCF7 ADRr adriamycin-resistant human breast tumoral line, read-out: IC50 (MCF7 ADRr), concentration causing 50% inhibition of the cell proliferation. The procedure:
as §1

In general, melting point refers to the temperature of the solid-liquid transition. `CSc1ccc(C=CC(=O)c2ccc(OCC=C(C)C)cc2O)cc1` [Compound XXVI, 1-(2-Hydroxy-4-(3-methylbut-2-enyloxy)-phenyl)-3-(4-methylthiophenyl)-propen-1-one] came in with a melting point of 130 to 131 °C.

Regarding `CC(C)=CCOc1ccc(C(=O)C=Cc2ccc(C)cc2)c(O)c1` [Compound XXV, 1-(2-Hydroxy-4-(3-methylbut-2-enyloxy)-phenyl)-3-(4-methylphenyl)-propen-1-one], the melting point lay in the range of 108 to 109 °C.

For the compound `C=C(C)COc1ccc(C(=O)C=Cc2ccccc2)c(O)c1` [Compound XV, 1-(2-Hydroxy-4-(2-methylallyloxy)-phenyl)-3-(phenyl)-propen-1-one], the values for the IC50 (in data set [1]; in the data set with MDA-MB231; in the data set on MCF7 ADRr) were 2.9 µM, 10.7 µM and 7.1 µM, respectively.

On to `C#CCOc1ccc(C(=O)C=Cc2cccs2)c(O)c1` [Compound XIII, 1-(2-Hydroxy-4-(prop-2-ynyloxy)-phenyl)-3-(2-thienyl)-propen-1-one], for which the IC50 stood at 4.3 µM in data set [1], 4.9 µM with MDA-MB231 and 5.1 µM in the data set on MCF7 ADRr.

On to `CC(C)=CCOc1ccc(C(=O)C=Cc2cccs2)c(O)c1` [Compound XI, 1-(2-Hydroxy-4-(3-methylbut-2-enyloxy)-phenyl)-3-(2-thienyl)-propen-1-one], for which the values for the IC50 (in data set [1]; in the data set on MDA-MB231; in the data set with MCF7 ADRr) were 1.4 µM, 4.1 µM and 3.6 µM, respectively.

Compound `CC(C)=CCOc1ccc(C(=O)C=Cc2c(Cl)cccc2Cl)c(O)c1` [Compound XXI, 1-(2-Hydroxy-4-(3-methylbut-2-enyloxy)-phenyl)-3-(2,6-dichlorophenyl)-propen-1-one] gave a melting point of 101 to 102 °C.

Turning to `CC(C)=CCOc1ccc(C(=O)C=Cc2ccc(F)cc2)c(O)c1` [Compound XIX, 1-(2-Hydroxy-4-(3-methylbut-2-enyloxy)-phenyl)-3-(4-fluorophenyl)-propen-1-one], the melting point is 96 to 97 °C.

In the case of `CC(C)=CCOc1ccc(C(=O)C=Cc2cccnc2)c(O)c1` [Compound II, 1-[2-Hydroxy-4-(3-methylbut-2-enyloxy)-phenyl]-3(pyridine-3-yl)-propen-1-one], the melting point was in the range of 177 to 179 °C. Besides, the IC50 in data set [1] was determined as 3.3 µM. Moreover, the IC50 with MDA-MB231 was 3.2 µM. Further, the IC50 in the data set with MCF7 ADRr was 2.2 µM.

In the case of `CC(=O)Nc1ccc(C=CC(=O)c2ccc(OCC=C(C)C)cc2O)cc1` [Compound III, 1-[2-hydroxy-4-(3-methylbut-2-enyloxy)-phenyl]-3-(4-acetamidophenyl)-propen-1-one], the IC50 was 4.2 µM in data set [1], 8.2 µM with MDA-MB231 and 7 µM in the data set with MCF7 ADRr.

Compound `C#CCOc1ccc(C(=O)C=Cc2c(OC)cc(OC)cc2OC)c(O)c1` [Compound XXIII, 1-(2-Hydroxy-4-(prop-2-ynyloxy)-phenyl)-3-(2,4,6-trimethoxyphenyl)-propen-1-one] came in with a melting point of 177 to 179 °C.

`C=C(C)COc1ccc(C(=O)C=Cc2cccnc2)c(O)c1` [Compound VIII, 1-[2-Hydroxy-4-(2-methylallyloxy)-phenyl]-3-(pyridine-3-yl)-propen-1-one]: the melting point lay within 164 to 166 °C. The IC50 in data set [1] was 4 µM. Also, the IC50 in the data set on MDA-MB231 is 5.4 µM. In addition, in the data set with MCF7 ADRr, the IC50 is 6 µM.

Compound `C=C(C)COc1ccc(C(=O)C=Cc2ccc(OC)cc2OC)c(O)c1` [Compound XVII, 1-(2-Hydroxy-4-(2-methylallyloxy)-phenyl)-3-(2,4-dimethoxyphenyl)-propen-1-one] returned a melting point of 106 to 107 °C. Besides, in data set [1], the IC50 came to 5.5 µM. The IC50 in the data set with MDA-MB231 turned out to be 4.3 µM. The IC50 with MCF7 ADRr is 5.6 µM.

`C#CCOc1ccc(C(=O)C=Cc2ccc(C#N)cc2)c(O)c1` [Compound XXIV, 1-(2-Hydroxy-4-(prop-2-ynyloxy)-phenyl)-3-(4-cyanophenyl)-propen-1-one] showed a melting point of 188 to 190 °C.

On to `C=C(C)COc1ccc(C(=O)C=Cc2ccc(Br)cc2)c(O)c1` [Compound XVIII, 1-(2-Hydroxy-4-(2-methylallyloxy)-phenyl)-3-(4-bromophenyl)-propen-1-one], for which the melting point lay within 121 to 122 °C.

With `CC(C)=CCOc1ccc(C(=O)C=Cc2c[nH]c3ccccc23)c(O)c1` [Compound V, 1-[2-hydroxy-4-(3-methylbut-2-enyloxy)-phenyl]-3-(indole-3-yl)-propen-1-one], the IC50 in data set [1] is 2.8 µM; with MDA-MB231 it was 11 µM; in the data set with MCF7 ADRr it was 6.8 µM.

As to `C=C(C)COc1ccc(C(=O)C=Cc2cccs2)c(O)c1` [Compound XII, 1-(2-Hydroxy-4-(2-methylallyloxy)-phenyl)-3-(2-thienyl)-propen-1-one], the IC50 in data set [1] came to 2.7 µM; in the data set on MDA-MB231 it was 5.3 µM; in the data set with MCF7 ADRr, 3.9 µM.

As to `C=C(C)COc1ccc(C(=O)C=Cc2ccc(N(C)C)cc2)c(O)c1` [Compound IV, 1-[2-hydroxy-4-(2-methylallyloxy)-phenyl]-3-(4-dimethylaminophenyl)-propen-1-one], the melting point is 85 to 87 °C. Also, the IC50 in data set [1] is 1.7 µM. Besides, the IC50 in the data set on MDA-MB231 was 7.5 µM. Further, the IC50 with MCF7 ADRr is 9.4 µM.

For `C#CCOc1ccc(C(=O)C=Cc2c[nH]c3ccccc23)c(O)c1` [Compound VII, 1-[2-hydroxy-4-(prop-2-ynyloxy)-phenyl]-3-(indole-3-yl)propen-1-one], the IC50 in data set [1] came out at 5.2 µM; in the data set with MDA-MB231, 7.1 µM; in the data set on MCF7 ADRr, 9.4 µM.

For the compound `CC(C)=CCOc1ccc(C(=O)C=Cc2ccco2)c(O)c1` [Compound XIV, 1-(2-Hydroxy-4-(3-methylbut-2-enyloxy)-phenyl)-3-(2-furyl)-propen-1-one], the IC50 in data set [1] is 3.2 µM; in the data set with MDA-MB231, 5.7 µM; in the data set with MCF7 ADRr, 6.3 µM.

In turn, `CC(C)=CCOc1ccc(C(=O)C=Cc2ccc(C(F)(F)F)cc2)c(O)c1` [Compound XXII, 1-(2-Hydroxy-4-(3-methylbut-2-enyloxy)-phenyl)-3-(4-trifluoromethylphenyl)-propen-1-one] showed a melting point of 122 to 123 °C.

In the case of `C#CCOc1ccc(C(=O)C=Cc2cccnc2)c(O)c1` [Compound X, 1-[2-hydroxy-4-(prop-2-ynyloxy)-phenyl]-3-(pyridine-3-yl)propen-1-one], the melting point was in the range of 115 to 117 °C. Also, the IC50 in data set [1] was found to be 2.8 µM. In addition, the IC50 in the data set with MDA-MB231 amounted to 3.7 µM. Moreover, the IC50 in the data set on MCF7 ADRr came out at 3.7 µM.

As to `C=C(C)COc1ccc(C(=O)C=Cc2c[nH]c3ccccc23)c(O)c1` [Compound VI, 1-[2-Hydroxy-4-(2-methylallyloxy)-phenyl]-3-(indole-3-yl)-propen-1-one], the IC50 in data set [1] worked out at 3.4 µM; in the data set on MDA-MB231 it was 9.6 µM; in the data set with MCF7 ADRr it was 8.8 µM.

Regarding `CC(C)=CCOc1ccc(C(=O)C=Cc2ccncc2)c(O)c1` [Compound I, 1-[2-Hydroxy-4-(3-methylbut-2-enyloxy)-phenyl]-3(pyridine-4-yl)-propen-1-one], the melting point fell in the range of 99 to 100 °C. In data set [1], the IC50 amounted to 1.1 µM. Further, the IC50 in the data set with MDA-MB231 was found to be 3.2 µM. The IC50 with MCF7 ADRr is 2.8 µM.

Turning to `C#CCOc1ccc(C(=O)C=Cc2ccccc2)c(O)c1` [Compound XVI, 1-(2-Hydroxy-4-(prop-2-ynyloxy)-phenyl)-3-(phenyl)-propen-1-one], the IC50 in data set [1] is 4.4 µM; with MDA-MB231, 8.9 µM; with MCF7 ADRr it was 8.4 µM.

Consider `CC(C)=CCOc1ccc(C(=O)C=Cc2cccc([N+](=O)[O-])c2)c(O)c1` [Compound XX, 1-(2-Hydroxy-4-(3-methylbut-2-enyloxy)-phenyl)-3-(3-nitrophenyl)-propen-1-one], for which the melting point was 125 to 126 °C.

In turn, `C=C(C)COc1ccc(C(=O)C=Cc2cccc(OC)c2)c(O)c1` [Compound IX, 1-[2-hydroxy-4-(2-methylallyloxy)-phenyl]-3-(3-methoxyphenyl)-propen-1-one] came in with a melting point of 97 to 100 °C. Besides, the IC50 in data set [1] is 3.1 µM. The IC50 with MDA-MB231 stood at 5 µM. Besides, the IC50 in the data set with MCF7 ADRr worked out at 8.9 µM.
